In PubChem BioAssay (NCI):
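These data come from cells grown in 96-well plates and exposed to compound for 48 hours at five concentrations. At the GI50, growth is halved. TGI denotes the concentration required for complete inhibition of growth.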 *1 amine or outer side, *2 acyl side, *3 side chain or, on linkers, in order; H or OH if unused. Where a SMILES comes first, the peptide text is derived from it. Bridges are numbered along the chain shown (N, C = ends). Roman numbers before positions name the chains, in order. [ ]: non-standard residue; d: D form. Actinocin(9to1) = Cc1c2oc3c(C)ccc(C(=O)[*:1])c3nc-2c(C(=O)[*:2])c(N)c1=O; NMeH = CN[CH](Cc1c[nH]cn1)C(=O)O; Sar = CNCC(=O)O

Experiments:
Assay in all cases: DTP human tumour cell line panel, 48 h
786-0 renal = system: 786-0 renal
HOP-62 NSCLC = system: HOP-62 NSCLC
NCI-H226 lung = system: NCI-H226 lung
SF-268 CNS = system: SF-268 CNS
EKVX NSCLC = system: EKVX NSCLC
COLO 205 colon = system: COLO 205 colon
NCI-H522 lung = system: NCI-H522 lung
SK-OV-3 ovarian = system: SK-OV-3 ovarian
M14 melanoma = system: M14 melanoma
K-562 leukemia = system: K-562 leukemia
HCT-116 colon = system: HCT-116 colon
SR leukemia = system: SR leukemia

Row | Compound | TGI (786-0 renal) [µM] | TGI (HOP-62 NSCLC) [µM] | TGI (NCI-H226 lung) [µM] | TGI (SF-268 CNS) [µM] | TGI (EKVX NSCLC) [µM] | TGI (COLO 205 colon) [µM] | TGI (NCI-H522 lung) [µM] | TGI (SK-OV-3 ovarian) [µM] | TGI (M14 melanoma) [µM] | TGI (K-562 leukemia) [µM] | TGI (HCT-116 colon) [µM] | TGI (SR leukemia) [µM] | GI50 (NCI-H226 lung) [µM] | GI50 (SF-268 CNS) [µM] | GI50 (EKVX NSCLC) [µM] | GI50 (COLO 205 colon) [µM] | GI50 (NCI-H522 lung) [µM] | GI50 (SK-OV-3 ovarian) [µM] | GI50 (M14 melanoma) [µM]
1 | N#C/C(=C/C=C/c1ccco1)C(N)=O | > 10 | > 10 | > 10 | > 10 | > 10 | > 10 | > 10 | > 10 | > 10 |  |  |  |  |  |  |  |  |  | 
2 | CCc1cccc2c3c([nH]c12)-c1ccccc1NC(=O)C3 | > 100 | > 100 | > 100 | > 100 | > 100 | > 100 |  | > 100 | > 100 | > 100 |  |  |  |  |  |  |  |  | 
3 | O=C(/C(=C(/O)c1ccccc1)c1nc2ccccc2sc1=O)c1ccccc1 | > 100 | 44.1 | 72.8 | > 100 | > 100 | > 100 | 68 | 77.3 | 33.3 | 45 | > 100 |  |  |  |  |  |  |  | 
4 | Cc1c2oc3c(C)ccc(C(=O)NC4C(=O)NC(C(C)C)C(=O)N5CCCC5C(=O)N(C)CC(=O)N(C)C(Cc5cnc[nH]5)C(=O)OC4C)c3nc-2c(C(=O)NC2C(=O)NC(C(C)C)C(=O)N3CCCC3C(=O)N(C)CC(=O)N(C)C(Cc3cnc[nH]3)C(=O)OC2C)c(N)c1=O (stereo unspecified) (I: TVP[Sar][NMeH] / II: TVP[Sar][NMeH]; ester I:1-I:C, II:1-II:C; linker I:N-II:N via Actinocin(9to1); configuration not given here) | > 100 | > 100 | > 100 | > 100 | > 100 | > 100 | > 100 | > 100 | > 100 | > 100 |  | > 100 |  |  |  |  |  |  | 
5 | CCOC(=O)c1ccc(Nc2nc3ccccc3nc2-c2cccs2)cc1 | > 100 | > 100 | > 100 | > 100 | > 100 | > 100 | 80.7 |  |  | > 100 | > 100 | > 100 |  |  |  |  |  |  | 
6 | CC(C(=O)OCc1ccccc1)N(Cc1ccccc1)Cc1ccccc1 (stereo unspecified) |  | > 100 |  | > 100 | > 100 | > 100 | > 100 | > 100 | > 100 | > 100 | > 100 | > 100 |  |  |  |  |  |  | 
7 | C1=NCCNCCNCCN=Cc2ccc(cc2)OCc2cccc(n2)COc2ccc1cc2 | > 100 | > 100 | > 100 | > 100 | > 100 | > 100 |  | > 100 | > 100 | > 100 | > 100 | > 100 |  |  |  |  |  |  | 
8 | C#CC(O)(c1nc2ccccc2s1)c1nc2ccccc2s1 | 38.9 | 85.1 |  | > 100 | 57.5 | 40 | 39.7 |  | 32.8 | > 100 | 30.2 |  |  |  |  |  |  |  | 
9 | Cc1c(CNc2ccc(C(=O)NC(CCCNC(=O)c3ccccc3C(=O)O)C(=O)O)cc2)cnc2nc(N)nc(N)c12 (stereo unspecified) | > 100 |  | 2.91 |  | > 100 | 4.74 |  | > 100 |  |  |  |  | 0.00248 | 0.00161 | 0.0834 | 1.72 | 0.00428 | > 100 | 0.0385
10 | COc1ccc(C2C3=C(N=C4SC(C(C)=O)=C(C)N42)c2ccccc2CC3)cc1 (stereo unspecified) | > 100 | > 100 | > 100 | > 100 |  | > 100 |  | > 100 | > 100 |  | > 100 |  |  |  |  |  |  |  | 
11 | COc1ccccc1OCC(COC(=O)Nc1ccccc1)OC(=O)Nc1ccccc1 (stereo unspecified) |  | > 100 | > 100 | > 100 | > 100 | > 100 | > 100 | > 100 | > 100 | > 100 | > 100 |  |  |  |  |  |  |  | 
12 | CNc1nnc(CCCCCCCCc2nnc(NC)o2)o1 | 47 | 78 | > 100 |  | > 100 | > 100 |  | > 100 | > 100 | > 100 | 41.9 |  |  |  |  |  |  |  | 
13 | Cc1cc2[nH]c3c(C#N)c(-c4ccccc4)c(N=Nc4ccc(F)cc4)c(=O)n3c2cc1C | > 100 | > 100 | > 100 | > 100 | > 100 | > 100 | > 100 | > 100 | > 100 |  | > 100 |  |  |  |  |  |  |  | 
14 | O=C1NC(=O)c2ccccc2/C1=C/c1ccc2c(c1)OCO2 | > 100 | 28.7 | > 100 | 82.1 | > 100 |  | > 100 | > 100 | 76.5 |  | 22.5 | > 100 |  |  |  |  |  |  | 
15 | CN(Cc1cnc2nc(N)nc(N)c2n1)c1ccc(C(=O)NC23CC4CC(CC(C4)C2)C3)cc1 | 57.1 | 28.2 | 27.3 | 22.7 | 32.5 | 24 |  | 31.9 | 18.4 | 65.8 | > 100 | > 100 |  |  |  |  |  |  | 
16 | CC1=NN(c2cccc(Cl)c2)C2(C1=Cc1ccc(O)cc1)C(Cl)C(=O)N2c1nc2ccccc2s1 (stereo unspecified) | 80.6 | 51.8 | > 100 | 86 | > 100 |  | 49 | 57.4 | 58.7 | 72.7 | 31.3 | 57.7 |  |  |  |  |  |  | 
17 | O=[N+]([O-])c1ccc(NN=C2CN3CCN(C2)c2ccccc23)c([N+](=O)[O-])c1 | > 100 | > 100 |  | > 100 | > 100 | > 100 | > 100 | > 100 | > 100 | > 100 | > 100 | > 100 |  |  |  |  |  |  | 
18 | O=C(COc1ccc(OCC(=O)N2C(=O)CC(=O)N(c3ccc(Cl)cc3)C2=S)cc1)N1C(=O)CC(=O)N(c2ccc(Cl)cc2)C1=S | 80.1 |  | 85.7 | > 100 | > 100 | 38.5 | 53.8 | > 100 | > 100 | > 100 | 25.2 |  |  |  |  |  |  |  | 
19 | N#Cc1nc2cc(Cl)ccc2nc1N1CCN(c2ccc([N+](=O)[O-])cc2)CC1 | > 100 | > 100 |  | > 100 | > 100 | > 100 |  | > 100 | > 100 | > 100 | > 100 |  |  |  |  |  |  |  | 
